Laboratory results: patent publication US10633382B2, “Imidazopyrazinones, pyrazolopyrimidinones and pyrazolopyridinones as PDE1 inhibitors” (H. Lundbeck A/S, priority 2016, dated 2020)

Assays:
Type in all cases: biochemical
[1] = target: PDE1A (Homo sapiens, UniProt P54750); assay: PDE1 inhibition assay (PDE1A); conditions: 15 nM tritium labelled cAMP, SPA
Method: (§1) PDE1A, PDE1B and PDE1C assays were performed as follows: the assays were performed in 60 μL samples containing a fixed amount of the PDE1 enzyme (sufficient to convert 20-25% of the cyclic nucleotide substrate), a buffer (50 mM HEPES (4-(2-hydroxyethyl)-1-piperazineethanesulfonic acid) pH 7.6; 10 mM MgCl2; 0.02% Tween20), 0.1 mg/ml BSA (bovine serum albumin), 15 nM tritium labelled cAMP and varying amounts of inhibitors. Reactions were initiated by addition of the cyclic nucleotide substrate, and reactions were allowed to proceed for 1 hr at room temperature before being terminated through mixing with 20 μL (0.2 mg) yttrium silicate SPA beads (PerkinElmer). The beads were allowed to settle for 1 hour in the dark before the plates were counted in a Wallac 1450 Microbeta counter. The measured signals were converted to activity relative to an uninhibited control (100%) and IC50 values were calculated using XlFit (model 205, IDBS).

[2] = target: PDE1C (Homo sapiens, UniProt Q14123); assay: PDE1 inhibition assay (PDE1C); conditions: 15 nM tritium labelled cAMP, SPA
Method: as §1

[3] = target: PDE9 (Homo sapiens, UniProt O76083); assay: PDE9 inhibition assay; conditions: 10 μM of inhibitor
Method: A PDE9 assay may for example, be performed as follows: The assay is performed in 60 μL samples containing a fixed amount of the relevant PDE enzyme (sufficient to convert 20-25% of the cyclic nucleotide substrate), a buffer (50 mM HEPES pH 7.6; 10 mM MgCl2; 0.02% Tween20), 0.1 mg/ml BSA, 225 pCi of ^3H-labelled cyclic nucleotide substrate, tritium labeled cAMP to a final concentration of 5 nM and varying amounts of inhibitors. Reactions are initiated by addition of the cyclic nucleotide substrate, and reactions are allowed to proceed for one hr at room temperature before being terminated through mixing with 15 μL 8 mg/mL yttrium silicate SPA beads (Amersham). The beads are allowed to settle for one hr in the dark before the plates are counted in a Wallac 1450 Microbeta counter. The measured signal can be converted to activity relative to an uninhibited control (100%) and IC50 values can be calculated using the Xlfit extension to EXCEL.
In the context of the present invention the assay was performed in 60 μL assay buffer (50 mM HEPES pH 7.6; 10 mM MgCl2; 0.02% Tween20) containing enough PDE9 to convert 20-25% of 10 nM ^3H-cAMP, and […] 10 μM of inhibitor. Following 1 hr incubation the reactions were terminated by addition of 15 μL 8 mg/mL yttrium silicate SPA beads (Amersham). The beads were allowed to settle for one hr in the dark before the plates were counted in a Wallac 1450 Microbeta counter.

[4] = target: PDE1B (Homo sapiens, UniProt Q01064); assay: PDE1 inhibition assay (PDE1B); conditions: 15 nM tritium labelled cAMP, SPA
Method: as §1

PDE9, sequence (O76083 whole entry): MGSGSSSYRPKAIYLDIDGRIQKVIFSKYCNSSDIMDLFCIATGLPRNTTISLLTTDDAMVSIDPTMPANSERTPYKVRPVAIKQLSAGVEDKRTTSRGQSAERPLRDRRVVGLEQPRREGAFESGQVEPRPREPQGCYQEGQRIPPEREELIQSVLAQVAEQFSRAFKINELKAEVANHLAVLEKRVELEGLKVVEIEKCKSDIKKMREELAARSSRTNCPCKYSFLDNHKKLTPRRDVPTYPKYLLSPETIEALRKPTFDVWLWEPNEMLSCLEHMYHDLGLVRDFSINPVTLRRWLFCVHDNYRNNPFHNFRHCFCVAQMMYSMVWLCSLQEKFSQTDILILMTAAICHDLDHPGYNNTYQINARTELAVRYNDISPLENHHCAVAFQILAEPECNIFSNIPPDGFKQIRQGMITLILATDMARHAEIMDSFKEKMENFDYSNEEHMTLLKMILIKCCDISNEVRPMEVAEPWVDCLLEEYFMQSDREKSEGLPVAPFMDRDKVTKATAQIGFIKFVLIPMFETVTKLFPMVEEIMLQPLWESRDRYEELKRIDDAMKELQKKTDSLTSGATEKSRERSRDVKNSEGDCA
PDE1A, sequence (P54750 whole entry): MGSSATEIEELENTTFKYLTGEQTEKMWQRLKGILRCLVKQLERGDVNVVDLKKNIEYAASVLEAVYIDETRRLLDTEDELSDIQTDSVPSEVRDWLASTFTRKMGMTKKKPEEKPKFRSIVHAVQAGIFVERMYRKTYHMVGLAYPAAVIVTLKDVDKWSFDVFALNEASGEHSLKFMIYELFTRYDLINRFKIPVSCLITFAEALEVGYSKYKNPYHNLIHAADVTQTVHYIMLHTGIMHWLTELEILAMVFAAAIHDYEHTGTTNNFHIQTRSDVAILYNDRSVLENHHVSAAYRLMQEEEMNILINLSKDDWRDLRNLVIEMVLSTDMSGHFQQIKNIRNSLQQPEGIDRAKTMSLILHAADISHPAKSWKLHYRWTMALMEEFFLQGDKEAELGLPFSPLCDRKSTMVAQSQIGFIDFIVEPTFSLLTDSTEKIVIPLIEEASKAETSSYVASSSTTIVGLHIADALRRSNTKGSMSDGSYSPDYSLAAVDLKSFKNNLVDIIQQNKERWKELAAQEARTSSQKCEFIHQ
PDE1B, sequence (Q01064 whole entry): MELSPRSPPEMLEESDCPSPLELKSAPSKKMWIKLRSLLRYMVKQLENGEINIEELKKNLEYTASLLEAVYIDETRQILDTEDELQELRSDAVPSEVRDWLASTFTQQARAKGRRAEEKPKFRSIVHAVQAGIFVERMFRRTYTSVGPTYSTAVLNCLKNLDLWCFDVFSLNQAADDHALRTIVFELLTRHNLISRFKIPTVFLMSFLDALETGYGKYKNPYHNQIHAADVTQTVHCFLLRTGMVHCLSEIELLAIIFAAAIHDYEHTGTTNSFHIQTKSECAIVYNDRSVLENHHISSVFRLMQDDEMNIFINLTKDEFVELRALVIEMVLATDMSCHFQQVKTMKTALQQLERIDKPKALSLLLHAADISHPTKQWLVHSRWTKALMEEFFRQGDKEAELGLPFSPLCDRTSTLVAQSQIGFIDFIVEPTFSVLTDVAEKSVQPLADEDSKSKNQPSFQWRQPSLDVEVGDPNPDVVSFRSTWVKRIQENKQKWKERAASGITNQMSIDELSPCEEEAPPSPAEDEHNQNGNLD
PDE1C, sequence (Q14123 whole entry): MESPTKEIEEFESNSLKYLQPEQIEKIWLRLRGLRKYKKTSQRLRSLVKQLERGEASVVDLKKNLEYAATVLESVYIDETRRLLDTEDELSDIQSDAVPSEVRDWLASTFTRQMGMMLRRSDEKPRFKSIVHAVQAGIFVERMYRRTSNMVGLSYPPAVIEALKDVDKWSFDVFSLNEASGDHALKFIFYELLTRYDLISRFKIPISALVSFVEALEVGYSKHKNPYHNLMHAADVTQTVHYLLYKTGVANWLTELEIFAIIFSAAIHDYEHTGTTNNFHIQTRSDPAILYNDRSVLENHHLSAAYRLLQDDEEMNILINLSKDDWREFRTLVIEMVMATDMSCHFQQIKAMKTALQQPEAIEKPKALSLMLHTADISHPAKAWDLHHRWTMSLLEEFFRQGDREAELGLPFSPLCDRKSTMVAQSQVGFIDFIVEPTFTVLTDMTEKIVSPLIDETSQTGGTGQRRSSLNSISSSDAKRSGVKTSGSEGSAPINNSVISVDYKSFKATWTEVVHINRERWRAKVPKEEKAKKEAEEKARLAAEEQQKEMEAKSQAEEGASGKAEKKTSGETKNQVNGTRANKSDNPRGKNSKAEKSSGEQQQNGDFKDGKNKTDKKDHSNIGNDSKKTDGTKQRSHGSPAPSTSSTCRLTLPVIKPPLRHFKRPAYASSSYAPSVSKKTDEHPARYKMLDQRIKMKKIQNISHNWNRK

Compound	IC50 [1] [nM]	IC50 [2] [nM]	inhibition at 10 µM [3] [%]	IC50 [4] [nM]	PDE9 Inhibition at 10 μM (%) [3] [%]
Cn1c(Cc2ccc(-c3cnccn3)cc2)cn2c(C3CCOCC3)ncc2c1=O [Example 24, 7-methyl-6-(4-(pyrazin-2-yl)benzyl)-3-(tetrahydro-2H-pyran-4-yl)imidazo[1,5-a]pyrazin-8(7H)-one]	91	198	-2	30	–
Cc1cccc(-c2ccc(Cc3cc4c(cnn4C4CCOCC4)c(=O)n3C)cc2)n1 [Example 1, 5-methyl-6-[[4-(6-methyl-2-pyridyl)phenyl]methyl]-1-tetrahydropyran-4-yl-pyrazolo[4,3-c]pyridin-4-one]	150	220	10	32	–
Cn1c(Cc2ccc(-c3cccc(F)n3)cc2)cn2c(CC(F)(F)F)ncc2c1=O [Example 25, 6-(4-(6-fluoropyridin-2-yl)benzyl)-7-methyl-3-(2,2,2-trifluoroethyl)imidazo[1,5-a]pyrazin-8(7H)-one]	218	400	9	90	–
COc1ccc(Cn2c(CN3CCN(c4ccccn4)CC3)cn3c(C4CCOCC4)ncc3c2=O)cc1 [Example 7, 7-[(4-methoxyphenyl)methyl]-6-[[4-(2-pyridyl)piperazin-1-yl]methyl]-3-tetrahydropyran-4-yl-imidazo[1,5-a]pyrazin-8-one]	88	190	19	13	–
Cn1c(Cc2ccc(-c3cccc(F)n3)cc2)nc2c(cnn2C2CCOCC2)c1=O [Example 4, 6-[[4-(6-fluoro-2-pyridyl)phenyl]methyl]-5-methyl-1-tetrahydropyran-4-yl-pyrazolo[3,4-d]pyrimidin-4-one]	180	2100	17	57	–
Cc1cccc(-c2ccc(Cc3nc4c(cnn4C4CCOCC4)c(=O)n3C)cc2)n1 [Example 3, 5-methyl-6-[[4-(6-methyl-2-pyridyl)phenyl]methyl]-1-tetrahydropyran-4-yl-pyrazolo[3,4-d]pyrimidin-4-one]	350	660	25	93	–
CCn1c(Cc2ccc(-c3ccccn3)cc2)cn2c(C3CCOCC3)ncc2c1=O [Example 12, 7-ethyl-6-[[4-(2-pyridyl)phenyl]methyl]-3-tetrahydropyran-4-yl-imidazo[1,5-a]pyrazin-8-one]	12	26	4	3.1	–
CC1OCCC1c1ncc2c(=O)n(C)c(Cc3ccc(-c4cccc(F)n4)cc3)cn12 (single isomer, unassigned; isomer 4) [Example 32, 6-(4-(6-fluoropyridin-2-yl)benzyl)-7-methyl-3-(2-methyltetrahydrofuran-3-yl)imidazo[1,5-a]pyrazin-8(7H)-one, Isomer 4]	5.8	9.2	–	1.3	5
Cn1c(Cc2ccc(-c3cccc(F)n3)cc2)cn2c(C3CCOC3)ncc2c1=O (single isomer, unassigned; isomer 2) [Example 28, 6-(4-(6-fluoropyridin-2-yl)benzyl)-7-methyl-3-(tetrahydrofuran-3-yl)imidazo[1,5-a]pyrazin-8(7H)-one, Isomer 2]	71	111	–	26	6
Cn1c(Cc2ccc(-c3cccc(F)n3)cc2)cn2c(C3CCOC3)ncc2c1=O (single isomer, unassigned; isomer 1) [Example 27, 6-(4-(6-fluoropyridin-2-yl)benzyl)-7-methyl-3-(tetrahydrofuran-3-yl)imidazo[1,5-a]pyrazin-8(7H)-one, Isomer 1]	57	96	4	16	–
